Key:
[1] = preliminary results; cited from earlier work
KCL cells = assay: Cell viability and proliferation assays (CCK8, trypan blue counts); details: combined with MRTX-849 at its IC50 dose
H2122 cells = details: individual H2122 data (top); MRTX-849 vs vehicle 48 hr
Description: Bulk RNA-seq was performed on total RNA from cell lines or isolated tumor cells by the PCC Genome Technology Center Shared Resource (GTC). Libraries were prepared with the Illumina TruSeq Stranded Total RNA Sample Preparation Kit and sequenced on an Illumina NovaSeq 6000 platform utilizing 150-bp paired end reads. Sequencing data were de-multiplexed and transformed into FASTQ format by using Illumina bcl2fastq software. […] Briefly, sequencing results were transformed into FASTQ format by using Illumina bcl2fastq software. Reads were adapter- and quality-trimmed using Trimmomatic before alignment with the human or mouse genome using the splice-aware STAR aligner. Using featureCounts (49), counts for each gene were created based on the number of aligned reads overlapping its exons. These counts were standardized and subsequently evaluated for differential expression via the DESeq2 R package, using negative binomial generalized linear models. Lastly, the Enrichr tool was employed for pathway analysis of the bulk RNA-seq data.

YAP1 = YAP1 and DAPI immunofluorescence (YAP1 nuclear localization); type: cell-based
Excerpt: […]. […] Datasets (color-coded) used for pathway analysis are indicated at right with the sizes of the circles indicating statistical significance. […]. All immunofluorescence images are representative of three independent experiments. Scale bar=20 μm.
. FIG. 4B is a bubble plot showing pathways (p<0.05) enriched in SL genes (FDR<0.1). Datasets used for analysis are color-coded at right; the sizes of the circles indicate significance level. FIG. 4C is a Circos plot illustrating the overlap of SL genes (FDR<0.1) between lines. […]. FIGS. 10C-10D show quantification of YAP nuclear localization in presence of ROCK-I, in data from FIGS. 3G-3H. *p<0.05, 1-way ANOVA with Tukey's multiple comparisons test.

YAP = assay: YAP1 immunofluorescence (nuclear localization); type: cell-based, human
Description: Immunofluorescence. […]. Cells were then fixed in 4% paraformaldehyde for 10 minutes at room temperature, rinsed three times for 5 min. each in PBS, and permeabilized in 0.1% Triton X-100/5% FBS in PBS for a 1 hr at RT. […] Nuclei were stained with DAPI (BioLegend, Cat #: 422801) for 5 min, and slides were washed two more times in PBS before mounting with Fluorescence Mounting Medium (Dako, Cat #: S3023). Images were acquired with a Zeiss 880 Laser Scanning Confocal Microscope (Axio Observer) equipped with Zen 3.0 software (ZEN blue, Carl Zeiss Inc.) and were processed by Fiji software (NIH).

NSCLC lines = assay: Cell viability and proliferation assays (CCK8, trypan blue counts, Bliss analysis); type: cell-based, human; details: for effect on MRTX-849 action: multiple NSCLC lines, including those not STK11 and/or KEAP1 mutant
Description: Cell viability and proliferation assays. […] Media (including inhibitors) were replaced every two days. Dose-response curves were generated using the […] Cell Counting Kit-8 (CCK8) assay (Enzo, ALX-850-039-KI02). Three hours after addition of CCK-8 reagent to cells, A450 was recorded using a FlexStation 3 multi-mode microplate reader according to the manufacturer's instructions. IC50s were calculated with GraphPad Prism. For all other proliferation assays, cells were harvested and stained with trypan blue (#T8154, Sigma-Aldrich), and viable (trypan blue-excluding) cells were quantified with a Countless II automated cell counter (Invitrogen).

[2] = test system: H2030 cell-derived xenografts; assay: H2030 cell-derived xenografts in nu/nu mice; type: in vivo, mouse; details: MRTX-849 100 mg/kg/d, 30 days of treatment; VT104 10 mg/kg/d
Description: (§1) For syngeneic tumor experiments, KCL cells (10^6 in 200 ml PBS) were injected subcutaneously into the right flanks of male C57BL/6J mice (Jackson Laboratory). For xenografts, H2030 cells (5×10^6) were injected subcutaneously into the right flanks of Crl:NU-Foxn1nu/nu mice (Charles River, #088) with a 1:1 mixture of cell suspension in Matrigel (Corning, Cat #354234). […] Mice were weighed two times a week prior to dosing and throughout the study. Tumors were measured in 2 dimensions (length and width) twice a week and volumes (mm^3) were calculated as (length×width^2)/2).

[3] = test system: KCL syngeneic tumor grafts; assay: KCL syngeneic tumor grafts in C57BL/6J mice; type: in vivo, mouse; details: MRTX-849 100 mg/kg/d, 30 days of treatment; VT104 10 mg/kg/d
Description: as §1

KCL lung tumors = assay: KCL GEMM (KRAS G12C; Stk11 fl/fl, Ad-Cre) long-term treatment, MRI monitoring; details: MRTX849 100 mg/kg/d plus SHP099 75 mg/kg/d; resistant tumors soon recurred

In the case of `C[C@H](CO)NC(=O)c1ccc2c(Oc3ccc(C(F)(F)F)cc3)cccc2c1` [VT3989], the “safety in phase 1 clinical trial” value [1] is given as “safe with manageable toxicity”.
With `C=C(F)C(=O)N1C[C@@H](Nc2ncccn2)[C@H](OCc2ccc(C(F)(F)F)cc2)C1` [MYF-03-176] the “IC50 in YAP1 over-expressing cells” value (KCL cells) was “higher”.
For `C=C(F)C(=O)N1CCN(c2nc(OC[C@@H]3CCCN3C)nc3c2CCN(c2cccc4cccc(Cl)c24)C3)C[C@@H]1CC#N` [MRTX-849, adagrasib], the “PSAP RNA-seq, column median2” value (H2122 cells) was 0.7802, the “nuclear translocation of YAP” value (YAP1; H2030, H2122, H23, MiaPaca2 cells, MRTX-849 at IC50) was “induces RHO/ROCK-dependent nuclear translocation of YAP” and the “levels of nuclear YAP” value (YAP; H2030 cells) was “increased”. For the same compound, the “time at which nuclear YAP increase begins” value (YAP; H2030 cells) was 4 h and the “time at which nuclear YAP peaks” value (YAP; H2030 cells) was 24 to 48 h.
For `C[C@@H](N)[C@H]1CC[C@H](C(=O)Nc2ccncc2)CC1` [Y-27632], the “MRTX-849-induced YAP1 nuclear localization” value (YAP1; NSCLC lines, MRTX-849 at IC50 with or without Y-27632 (10 μM)) was “impairs MRTX-849-induced YAP1 nuclear localization”.
In the case of `C[C@@H](NC(=O)c1ccc2c(-c3ccc(C(F)(F)F)cc3)cccc2c1)c1cccc(N)n1` [VT106], the “effect on drug sensitivity” value (NSCLC lines; inactive analog control) is reported as “no effect”.
With `C[C@@H](N)[C@H]1CC[C@H](C(=O)Nc2ccncc2)CC1` [Y27632] the “effect of addition on MRTX-849 efficacy” value (NSCLC lines; two cell lines tested) was “increased MRTX-849 efficacy”, the “YAP nuclear translocation induced by MRTX treatment” value (YAP; MRTX treatment for 24 hr plus ROCK inhibitor) was “inhibited” and the “YAP nuclear translocation induced by MRTX treatment” value (YAP; after 48h of treatment plus ROCK inhibitor) was “to an even greater extent”.
For `C[C@H](NC(=O)c1ccc2c(-c3ccc(C(F)(F)F)cc3)cccc2c1)c1ccccn1` [VT104], the tumor response [2] was “minimal” and the tumor response [3] was “minimal”.
In the case of `C=CC(=O)N1C[C@@H](n2cc(-c3cccnc3)nn2)[C@H](OCc2ccc(C(F)(F)F)cc2)C1` [MYF-03-69], the “effect on MRTX-849 action” value (NSCLC lines) is reported as “synergistically augmented”.
In the case of `CC1(N)CCN(c2cnc(-c3cccc(Cl)c3Cl)c(N)n2)CC1` [SHP099], the “response of tumors recurred after prolonged MRTX-849 treatment” value (KCL lung tumors) is reported as “partial responses”.
In the case of `C[C@H](NC(=O)c1ccc2c(-c3ccc(C(F)(F)F)cc3)cccc2c1)c1ccccn1` [VT-104], the “effect on efficacy of combination MRTX849/TNO-155” value (NSCLC lines; NSCLC lines, vs single agent or two drug-combinations, all at reduced doses) is reported as “increased the efficacy”, the “effect on MRTX-849 action” value (NSCLC lines) is reported as “synergistically augmented” and the “IC50 in YAP1 over-expressing cells” value (KCL cells) is reported as “higher”.

Reference: patent US20250082648A1, “COMPOSITIONS AND METHODS FOR ENHANCING KRAS INHIBITOR OR SHP2 INHIBITOR EFFICACY” (New York University, priority 2023, published 2025)
